These results are taken from US11970470B1, “{5-chloro-2-(2-(3-(substitutedphenyl)-1,2,4-oxadiazol-5-yl)ethyl)phenyl}(phenyl)methanones as larvicidal agents” (KING FAISAL UNIVERSITY, priority 2023, dated 2024).

Structures are written as SMILES. Read-outs that look alike come from different tables or passages of the source.

One data set deals with Anopheles arabiensis. Nature of the data set: Larvicidal screening (WHO protocol), 3rd instar larvae. The format is in vivo. To be noted: for mortality at 4 µg/mL: 4 μg/mL. The procedure: Anopheles arabiensis was used in the study according to the protocol described by WHO (1975) guidelines in an insectary simulating the temperature (27.5° C.), humidity (70%), and lighting (12/12) of a malaria-endemic environment. One mL of test compound (1 mg/mL) was added to 1 mL of acetone and followed by […] of distilled water to obtain a final concentration of 4 μg/mL. Thirty individuals of 3rd instar larvae were introduced into a container. Negative control was set up using the solvent (acetone) and distilled water, and a positive control included Temephos, which is an active emulsified organophosphate larvicidal used by malaria control programs. Larval mortality was examined for each container separately for 24 h and fed specially made cat food that contained less oil/fat content. The percentage of mortality was determined relative to the initial number of larvae exposed.
Differences in larval mortality between treatments were assessed with generalized linear models using a quasi-Poisson link function. Anopheles arabiensis mortality was the dependent variable, while fixed effects were test compounds and observation period (24 and 48 h). A p-value<0.05 was considered statistically significant. Throughout the text, the results are presented as the adjusted mean±the standard error.

Setting [1] is: Anopheles arabiensis larvae exposed for 24 h, read-out: Mortality in % (Mean ± SEM) 24 h.
Where [2] appears, read: Anopheles arabiensis larvae exposed for 48 h, read-out: Mortality in % (Mean ± SEM) 48 h.

One may read the melting point as the temperature, or range, at which the solid turns liquid. `O=C(c1ccccc1)c1cc(Cl)ccc1OCc1nc(-c2ccccc2)no1` [Compound 5a, {5-Chloro-2-[(3-(phenyl)-1,2,4-oxadiazol-5-yl)-methoxy]-phenyl}-(phenyl)-methanone] displayed a melting point of 108 to 110 °C. The mortality is the percentage killed. In the case of `O=C(c1ccccc1)c1cc(Cl)ccc1OCc1nc(-c2ccc(F)cc2)no1` [Compound 5b, {5-Chloro-2-[(3-(4-fluorophenyl)-1,2,4-oxadiazol-5-yl)-methoxy]-phenyl}-(phenyl)-methanone], the mortality at 4 µg/mL in the data set on Anopheles arabiensis (setting [1]) came to 91.7 ± 1.61%; with Anopheles arabiensis (setting [2]), 94.7 ± 1.9%.

For the molecule `O=C(c1ccccc1)c1cc(Cl)ccc1OCc1nc(-c2ccc(I)cc2)no1` [Compound 5c, {5-chloro-2-[(3-(4-iodophenyl)-1,2,4-oxadiazol-5-yl)-methoxy]-phenyl}-(phenyl)-methanone], the melting point is 124 to 126 °C.

`Cc1cc(F)c(-c2noc(COc3ccc(Cl)cc3C(=O)c3ccccc3)n2)cc1F` [Compound 5d, {5-Chloro-2-[(3-(2,5-difluoro-4-methylphenyl)-1,2,4-oxadiazol-5-yl)-methoxy]-phenyl}-(phenyl)-methanone] displayed a melting point of 87 to 89 °C.

`CCOc1ccc(-c2noc(COc3ccc(Cl)cc3C(=O)c3ccccc3)n2)cc1` [Compound 5e, {5-Chloro-2-[(3-(4-ethoxyphenyl)-1,2,4-oxadiazol-5-yl)-methoxy]-phenyl}-(phenyl)-methanone] showed a melting point of 80 to 82 °C. `O=C(c1ccccc1)c1cc(Cl)ccc1OCc1nc(-c2ccc(F)c(Cl)c2)no1` [Compound 5f, {5-Chloro-2-[(3-(3-chloro-4-fluorophenyl)-1,2,4-oxadiazol-5-yl)-methoxy]-phenyl}-(phenyl)-methanone]: the mortality at 4 µg/mL was 98.2 ± 1.22% in the data set with Anopheles arabiensis (setting [1]) and 100 ± 2.01% in the data set with Anopheles arabiensis (setting [2]). The “larval mortality rate in 48 hours” value with Anopheles arabiensis (in 48 hours, unit not given) came to 100.00±2.01.

With `CC(C)c1ccc(-c2noc(COc3ccc(Cl)cc3C(=O)c3ccccc3)n2)cc1` [Compound 5g, {5-Chloro-2-[(3-(4-isopropylphenyl)-1,2,4-oxadiazol-5-yl)-methoxy]-phenyl}-(phenyl)-methanone], the melting point lay within 110 to 112 °C.

Consider `Cc1cc(-c2noc(COc3ccc(Cl)cc3C(=O)c3ccccc3)n2)ccc1F` [Compound 5h, {5-Chloro-2-[(3-(4-fluoro-3-methylphenyl)-1,2,4-oxadiazol-5-yl)-methoxy]-phenyl}-(phenyl)-methanone], for which the mortality at 4 µg/mL in the data set with Anopheles arabiensis (setting [1]) came out at 83.6 ± 2.01%; in the data set with Anopheles arabiensis (setting [2]), 86.1 ± 1.95%. Turning to `COc1cc(-c2noc(COc3ccc(Cl)cc3C(=O)c3ccccc3)n2)ccc1F` [Compound 5i, {5-Chloro-2-[(3-(4-fluoro-3-methoxyphenyl)-1,2,4-oxadiazol-5-yl)-methoxy]-phenyl}-(phenyl)-methanone], the mortality at 4 µg/mL in the data set on Anopheles arabiensis (setting [1]) is 79.5 ± 1.09%; in the data set with Anopheles arabiensis (setting [2]), 84.7 ± 1.88%.
